Results taken from patent publication US20240374601A1, “METHODS AND COMPOSITIONS FOR TREATING CANCER” (Onconova Therapeutics, Inc., priority 2021, published 2024).

How the values were obtained:
[1] = tested on: ovarian cancer cells; test: Growth of ovarian cancer cell lines; type: cell-based
[2] = Myelosuppression and neutropenia in preclinical models; settings: in comparison to Comparator-1
[3] = tested on: prostate cancer cells; test: Growth of cancer cell lines resistant to Comparator-1; type: cell-based; settings: prostate cancer cells resistant to Comparator-1
[4] = Neutropenia, FIG. 2; type: cell-based; settings: ovarian cancer cell line; compared to Comparator 1
[5] = tested on: breast cancer cells; test: Growth of cancer cell lines resistant to Comparator-1; type: cell-based; settings: breast cancer cells resistant to Comparator-1

## CN1CCN(c2ccc(Nc3ncc4cc(C#N)c(=O)n(C5CCCC5)c4n3)cc2)CC1 [Compound 1, 8-cyclopentyl-2-((4-(4-methylpiperazin-1-yl)phenyl)amino)-7-oxo-7,8-dihydropyrido[2,3-d]pyrimidine-6-carbonitrile]
[1]; compared to Comparator 1
  inhibition of ovarian cancer cell line growth (FIG. 3): higher inhibition
[1]; ovarian cancer cells resistant to Comparator-1
  growth of cancer cell lines: inhibited growth
[2]
  myelosuppression: less myelosuppression
  neutropenia: less neutropenia
[3]
  growth of cancer cell lines: inhibited growth
[4]
  neutropenia (FIG. 2): reduced neutropenia
[5]
  growth of cancer cell lines: inhibited growth
